Laboratory results as given in patent US20060167037A1, “Combinational radiotherapy and chemotherapy compositions and methods” (priority 2003, published 2006).

Assays:
Type in all cases: cell-based
cancer cells [1] = experiment: Synergistic interaction with death receptor ligands and growth receptor inhibitors; conditions: growth receptor inhibitors eg. of EGF, PDGF, FGF, TNF and IGF receptors
cancer cells [2] = experiment: Synergy with the chemotherapeutics cisplatin and gemcitabine
[3] = test system: cancer cell lines to human breast, prostate, ovarian, pancreatic and cervical cancers; experiment: Radiosensitisation of cancer cell lines on culture plates (cell viability by CellTiter, apoptosis by Hoechst 33342 dye); conditions: pre-treatment (1 day and 8 hour) and sequential/post-treatment (−30 min/+4 h) regimes, at 2 and 10 μM
Procedure: The effect of a selection of isoflavonoid compounds on various cancer cell lines subjected to radiotherapy was assessed on culture plates. Cell viability was determined using CellTiter®. Apoptosis was evaluated using Hoechst 33342 dye.
32 and 39 (at 2 and 10 μM).

Row | Compound | synergistic interaction with interferon-gamma, Fas ligand, TRAIL ligand, growth receptor inhibitors (cancer cells [1]) | synergy with the effect of chemotherapeutics such as cisplatin and gemcitabine (cancer cells [2]) | radiosensitisation of cancer cell lines subjected to radiotherapy [3]
1 | Oc1ccc(C2=Cc3ccc(O)cc3OC2)cc1 [Cpd. 12, dehydroequol] | synergistic interaction | synergise | radiosensitised
2 | COc1ccc(C2c3ccc(O)cc3OCC2c2ccc(O)cc2)cc1 (stereo not shown) [compound 32] | synergistic interaction |  | radiosensitised
3 | COc1ccc(C2c3ccc(O)c(C)c3OCC2c2ccc(O)cc2)cc1 (stereo not shown) [compound 39] | synergistic interaction |  | radiosensitised
